According to patent US4260630A, “Skin diseases” (priority 1977, dated 1981):

Tests used:
yeast RNA = assay: Photobinding to yeast RNA in vivo (radiolabelled drug plus 365 nm light); format: binding, Saccharomyces cerevisiae; conditions: for μg 3-CPs/μg DNA / Molecules 3-CPs/μg DNA: binding to RNA
Experimental: (§1) The radioactivity of an aliquot (0.1 ml) of this solution was measured in 5 ml of scintillation mixture (Nuclear Entreprise, Ltd., Edinburgh, Scotland, NE 250).
(§2) For the in vivo determinations stationary phase cells of the haploid wild type strain N 123 were prepared as previously described.
(§3) 2 ml cell suspensions were exposed to several doses of 365 nm light. In parallel, non irradiated samples were incubated for the same periods. Immediately after incubation and/or irradiation, the samples were centrifuged and the pellet was washed 3 times with 5 ml of saline (0.9% NaCl). The washed cell pellet was resuspended in 1 ml of saline and 1 ml of 2 N NaOH was added in order to hydrolyze the RNA. The suspension was incubated overnight in the dark at room temperature, then cooled down on ice, and 2 ml of 50% TCA were added slowly. The samples were left 20 minutes on ice and the precipitated DNA was filtered on a glass fiber filter disc (Whatman GF/A, 2.1 cm diameter). In some cases the filtrate containing the acid-soluble material was kept aside, and the radioactivity of an aliquot added to 5 ml of NE250 scintillation mixture measured. The precipitate was washed 3 times with 5 ml of 5% cold TCA and 5 ml of 70% ethanol. The filters were then dried and the radioactivity measured in plastic counting vials containing 5 ml of scintillation mixture (NE 250) in a Tricarb Packard scintillation spectrophotometer.

Saccharomyces cerevisiae = assay: Induction of cytoplasmic "petite" mutations in yeast; conditions: compared at the same survival level (10%)
Experimental: A wild-type strain 211-1aM (29) of Saccharomyces cerivisiae was used, and the following mutants derived from it: S24-12c rad2-20 deficient in excision repair and S25-13b rad9-4 likely to be blocked in a recombinational repair pathway; a double mutant S 2057NL-24 rad2-20 -rad9-4 clone B was obtained by tetrad analysis of a heterozygote [formula]
The media and culture conditions used were as described in D. Averbeck, E. Moustacchi, (1975) Biochim. Biophys. Acta, 395, 393-404.
10^6 cells/ml in saline (0.9% NaCl) were treated for 30 minutes with the drugs at a final concentration of 10 μg/ml and 1.2% ethanol present.
A Philips HPW 125 culot Edison high pressure mercury lamp was used with maximal output at the wavelength 365 nm. The irradiation dose measured by actinometry was 10 J/m^2 per sec., using the following set up: 10 ml of actinometer solution (or the cell suspension, usually 1×10^6 cells/ml), stirred continuously by a magnetic stirrer, were irradiated at room temperature in an open Petri dish of 10 cm diameter at a distance of 10 cm from the center of the light bulb which was mounted horizontally. A 2 mm thick pyrex glass sheet (20×25 cm) was placed in the center of the light beam to cut out UV light of wavelength below 340 nm. […]

yeast DNA = assay: Photobinding to yeast DNA in vivo (radiolabelled drug plus 365 nm light); format: binding, Saccharomyces cerevisiae
Experimental: as §1, §2, §3

[1] = 20 min, 25.2 × 10^4 ergs.mm^-2 365 nm
[2] = 30 min, 37.8 × 10^4 ergs.mm^-2 365 nm
[3] = 40 min, 50.4 × 10^4 ergs.mm^-2 365 nm
[4] = 60 min, 75.6 × 10^4 ergs.mm^-2 365 nm
[5] = 5 min, 6.3 × 10^4 ergs.mm^-2 365 nm
[6] = 10 min, 12.6 × 10^4 ergs.mm^-2 365 nm
[7] = 15 min, 18.9 × 10^4 ergs.mm^-2 365 nm
[8] = 30 min, 38.8 × 10^4 ergs.mm^-2 365 nm

CCOC(=O)c1cc2cc3ccoc3cc2oc1=O [Example 3-CPs, 3-carboethoxypsoralen]
μg 3-CPs/μg DNA (yeast RNA; [1]): 0.15 μg 3-CPs/μg DNA × 10^-2 | Molecules 3-CPs/μg DNA (yeast RNA; [2]): 0.046 Molecules 3-CPs/μg DNA × 10^14 | μg 3-CPs/μg DNA (yeast RNA; [2]): 0.20 μg 3-CPs/μg DNA × 10^-2 | Molecules 3-CPs/μg DNA (yeast RNA; [3]): 0.053 Molecules 3-CPs/μg DNA × 10^14 | μg 3-CPs/μg DNA (yeast RNA; [3]): 0.23 μg 3-CPs/μg DNA × 10^-2 | Molecules 3-CPs/μg DNA (yeast RNA; [4]): 0.058 Molecules 3-CPs/μg DNA × 10^14 | μg 3-CPs/μg DNA (yeast RNA; [4]): 0.25 μg 3-CPs/μg DNA × 10^-2 | dark binding with RNA relative to that at lowest dose of irradiation (yeast RNA; dark, 50 minutes): 20% | 365 nm light dose up to which binding with RNA increases linearly, then levels off (yeast RNA; in vivo): up to 25.2×10^3 J/m^2 | difference in photoreactivity with RNA, 3-CPs vs 8-MOP (yeast RNA; in vivo): 3.4 factor | induction of cytoplasmic "petite" mutations (Saccharomyces cerevisiae): the most reactive compound | Molecules 3-CPs/μg DNA (yeast DNA; 5-60 min, no 365 nm light): 0.012 Molecules 3-CPs/μg DNA × 10^14 | cpm for 10^8 cells (yeast DNA; 5-60 min, no 365 nm light): 67.75 cpm for 10^8 cells | μg 3-CPs/μg DNA (yeast DNA; 5-60 min, no 365 nm light): 0.05 μg 3-CPs/μg DNA × 10^-2 | molecules linked to DNA per cell (yeast DNA; 18.9×10^3 J/m^2, 5×10^-5 M): 10.5×10^6 molecules per cell | binding ratio: pyrimidine bases per 1 bound molecule (yeast DNA; 18.9×10^3 J/m^2, 5×10^-5 M, on average): 2 pyrimidine bases | Molecules 3-CPs/μg DNA (yeast DNA; [5]): 0.92 Molecules 3-CPs/μg DNA × 10^14 | cpm for 10^8 cells (yeast DNA; [5]): 5030.5 cpm for 10^8 cells | μg 3-CPs/μg DNA (yeast DNA; [5]): 3.9 μg 3-CPs/μg DNA × 10^-2 | binding to DNA in vivo compared with in vitro (yeast DNA; 365 nm light): higher in the in vivo condition than in vitro | Molecules 3-CPs/μg DNA (yeast DNA; [6]): 1.34 Molecules 3-CPs/μg DNA × 10^14 | cpm for 10^8 cells (yeast DNA; [6]): 9409 cpm for 10^8 cells | μg 3-CPs/μg DNA (yeast DNA; [6]): 5.7 μg 3-CPs/μg DNA × 10^-2 | Molecules 3-CPs/μg DNA (yeast DNA; [7]): 2.1 Molecules 3-CPs/μg DNA × 10^14 | cpm for 10^8 cells (yeast DNA; [7]): 11386.5 cpm for 10^8 cells | μg 3-CPs/μg DNA (yeast DNA; [7]): 9 μg 3-CPs/μg DNA × 10^-2 | Molecules 3-CPs/μg DNA (yeast DNA; [1]): 2.8 Molecules 3-CPs/μg DNA × 10^14 | cpm for 10^8 cells (yeast DNA; [1]): 15650.2 cpm for 10^8 cells | μg 3-CPs/μg DNA (yeast DNA; [1]): 12.3 μg 3-CPs/μg DNA × 10^-2 | Molecules 3-CPs/μg DNA (yeast DNA; [8]): 2.8 Molecules 3-CPs/μg DNA × 10^14 | cpm for 10^8 cells (yeast DNA; [8]): 15307 cpm for 10^8 cells | μg 3-CPs/μg DNA (yeast DNA; [8]): 12 μg 3-CPs/μg DNA × 10^-2 | Molecules 3-CPs/μg DNA (yeast DNA; [3]): 2.6 Molecules 3-CPs/μg DNA × 10^14 | cpm for 10^8 cells (yeast DNA; [3]): 14248 cpm for 10^8 cells | μg 3-CPs/μg DNA (yeast DNA; [3]): 11 μg 3-CPs/μg DNA × 10^-2 | Molecules 3-CPs/μg DNA (yeast DNA; [4]): 2.3 Molecules 3-CPs/μg DNA × 10^14 | cpm for 10^8 cells (yeast DNA; [4]): 16476 cpm for 10^8 cells | μg 3-CPs/μg DNA (yeast DNA; [4]): 10 μg 3-CPs/μg DNA × 10^-2 | dark binding with DNA relative to that at lowest dose of irradiation (yeast DNA; dark, 50 minutes): around 10% | 365 nm light dose up to which binding with DNA increases linearly, then levels off (yeast DNA; in vivo): up to 25.2×10^3 J/m^2 | amount linked to DNA compared with RNA per cell (yeast DNA; in vivo): about the same as that bound to RNA per cell | amount linked to DNA relative to 8-MOP (yeast DNA; in vivo): about 15 times more | binding to DNA compared with 8-MOP (yeast DNA; in vivo): binds to DNA much more efficiently than 8-MOP | difference in photoreactivity with DNA in vivo, 3-CPs vs 8-MOP (yeast DNA; in vivo): 15 factor | difference in photoreactivity with DNA, 3-CPs vs 8-MOP (yeast DNA; in vivo): ≤ 20 factor | photoaffinity to DNA compared with RNA (yeast DNA; molecular basis): much higher than to RNA
